According to ChEMBL document CHEMBL3885861, “Open TG-GATES”:

Species on record: Rattus norvegicus
Test: Open TG-GATES - Regimen: Daily Repeat
Assay type: toxicity, organism-based, Sprague-Dawley
Design: regimen Daily Repeat, gender Male, age 6 weeks
Conditions: in vivo, po, 100 mg/kg, route gavage, dose level Middle; for APTT / Bas / Eos / Fbg / Hb / Ht / Lym / MCH / MCHC / MCV / Mono / Neu / PT / Plat / RBC / Ret / WBC: tissue Blood; for KIDNEY_L / KIDNEY_R / KIDNEY_TOTAL: tissue Kidney; for LIVER: tissue Liver; for A/G / ALP / ALT / AST / BUN / CRE / Ca / Cl / DBIL / GLC / IP / K / LDH / Na / PL / RALB / TBIL / TC / TG / TP / gamma-GTP: tissue Plasma

O=C(O)COc1nn(Cc2ccccc2)c2ccccc12 [BENDAZAC]
TERMINAL_BW (72 h, time 3 day): 231.3 g | APTT (72 h, time 3 day): 17.2 s | Bas (72 h, time 3 day): 0% | Eos (72 h, time 3 day): 1% | Fbg (72 h, time 3 day): 205 mg/dL | Hb (72 h, time 3 day): 13.5 g/dL | Ht (72 h, time 3 day): 40.4% | Lym (72 h, time 3 day): 80.6% | MCH (72 h, time 3 day): 21.6 pg | MCHC (72 h, time 3 day): 33.4% | MCV (72 h, time 3 day): 64.8 fL | Mono (72 h, time 3 day): 6.8% | Neu (72 h, time 3 day): 11.8% | PT (72 h, time 3 day): 11.8 s | Plat (72 h, time 3 day): 116.4 x10_4/uL | RBC (72 h, time 3 day): 624.4 x10_4/ul | Ret (72 h, time 3 day): 7.1% | WBC (72 h, time 3 day): 112.6 x10_2/uL | KIDNEY_L (72 h, time 3 day): 1 g | KIDNEY_R (72 h, time 3 day): 1.1 g | KIDNEY_TOTAL (72 h, time 3 day): 2.1 g | LIVER (72 h, time 3 day): 11.7 g | A/G (72 h, time 3 day): 2 | ALP (72 h, time 3 day): 987.2 IU/L | ALT (72 h, time 3 day): 39.8 IU/L | AST (72 h, time 3 day): 65.6 IU/L | BUN (72 h, time 3 day): 15.8 mg/dL | CRE (72 h, time 3 day): 0.6 mg/dL | Ca (72 h, time 3 day): 10.8 mg/dL | Cl (72 h, time 3 day): 104.2 meq/L | DBIL (72 h, time 3 day): 0.048 mg/dL | GLC (72 h, time 3 day): 199.8 mg/dL | IP (72 h, time 3 day): 7 mg/dL | K (72 h, time 3 day): 4.5 meq/L | LDH (72 h, time 3 day): 107.6 IU/L | Na (72 h, time 3 day): 140 meq/L | PL (72 h, time 3 day): 153.6 mg/dL | RALB (72 h, time 3 day): 3.8 g/dL | TBIL (72 h, time 3 day): 0.4 mg/dL | TC (72 h, time 3 day): 82 mg/dL | TG (72 h, time 3 day): 79.8 mg/dL | TP (72 h, time 3 day): 5.7 g/dL | gamma-GTP (72 h, time 3 day): 1 IU/L | TERMINAL_BW ([…], time 7 day): 259.9 g | TERMINAL_BW ([…], time 14 day): 309.7 g | TERMINAL_BW ([…], time 28 day): 386.1 g | APTT ([…], time 7 day): 17.3 s | Bas ([…], time 7 day): 0% | Eos ([…], time 7 day): 1.2% | Fbg ([…], time 7 day): 229.2 mg/dL | Hb ([…], time 7 day): 14.1 g/dL | Ht ([…], time 7 day): 41% | Lym ([…], time 7 day): 76.8% | MCH ([…], time 7 day): 21.7 pg | MCHC ([…], time 7 day): 34.3% | MCV ([…], time 7 day): 63.2 fL | Mono ([…], time 7 day): 8.4% | Neu ([…], time 7 day): 14% | PT ([…], time 7 day): 11.7 s | Plat ([…], time 7 day): 139.2 x10_4/uL | RBC ([…], time 7 day): 649.8 x10_4/ul | Ret ([…], time 7 day): 6.8% | WBC ([…], time 7 day): 114.5 x10_2/uL | APTT ([…], time 14 day): 17.7 s | Bas ([…], time 14 day): 0% | Eos ([…], time 14 day): 1% | Fbg ([…], time 14 day): 213.4 mg/dL | Hb ([…], time 14 day): 14.6 g/dL | Ht ([…], time 14 day): 43.2% | Lym ([…], time 14 day): 83.2% | MCH ([…], time 14 day): 20.5 pg | MCHC ([…], time 14 day): 33.9% | MCV ([…], time 14 day): 60.4 fL | Mono ([…], time 14 day): 4.8% | Neu ([…], time 14 day): 11.4% | PT ([…], time 14 day): 11.4 s | Plat ([…], time 14 day): 126.3 x10_4/uL | RBC ([…], time 14 day): 715 x10_4/ul | Ret ([…], time 14 day): 2.9% | WBC ([…], time 14 day): 124.2 x10_2/uL | APTT ([…], time 28 day): 18.1 s | Bas ([…], time 28 day): 0% | Eos ([…], time 28 day): 1.2% | Fbg ([…], time 28 day): 216.6 mg/dL | Hb ([…], time 28 day): 15.6 g/dL | Ht ([…], time 28 day): 45.8% | Lym ([…], time 28 day): 87% | MCH ([…], time 28 day): 19.5 pg | MCHC ([…], time 28 day): 34% | MCV ([…], time 28 day): 57.2 fL | Mono ([…], time 28 day): 2.2% | Neu ([…], time 28 day): 9% | PT ([…], time 28 day): 12 s | Plat ([…], time 28 day): 113.7 x10_4/uL | RBC ([…], time 28 day): 801.2 x10_4/ul | Ret ([…], time 28 day): 2.2% | WBC ([…], time 28 day): 131.2 x10_2/uL | KIDNEY_L ([…], time 7 day): 1.2 g | KIDNEY_R ([…], time 7 day): 1.1 g | KIDNEY_TOTAL ([…], time 7 day): 2.3 g | KIDNEY_L ([…], time 14 day): 1.2 g | KIDNEY_R ([…], time 14 day): 1.3 g | KIDNEY_TOTAL ([…], time 14 day): 2.5 g | KIDNEY_L ([…], time 28 day): 1.4 g | KIDNEY_R ([…], time 28 day): 1.4 g | KIDNEY_TOTAL ([…], time 28 day): 2.8 g | LIVER ([…], time 7 day): 13.1 g | LIVER ([…], time 14 day): 14.8 g | LIVER ([…], time 28 day): 17.3 g | A/G ([…], time 7 day): 2 | ALP ([…], time 7 day): 927.8 IU/L | ALT ([…], time 7 day): 31.6 IU/L | AST ([…], time 7 day): 55.8 IU/L | BUN ([…], time 7 day): 18.8 mg/dL | CRE ([…], time 7 day): 0.5 mg/dL | Ca ([…], time 7 day): 11.1 mg/dL | Cl ([…], time 7 day): 105.6 meq/L | DBIL ([…], time 7 day): 0.014 mg/dL | GLC ([…], time 7 day): 206 mg/dL | IP ([…], time 7 day): 6.6 mg/dL | K ([…], time 7 day): 4.4 meq/L | LDH ([…], time 7 day): 110.8 IU/L | Na ([…], time 7 day): 140.6 meq/L | PL ([…], time 7 day): 141 mg/dL | RALB ([…], time 7 day): 3.8 g/dL | TBIL ([…], time 7 day): 0.4 mg/dL | TC ([…], time 7 day): 71.8 mg/dL | TG ([…], time 7 day): 108.6 mg/dL | TP ([…], time 7 day): 5.7 g/dL | gamma-GTP ([…], time 7 day): 1 IU/L | A/G ([…], time 14 day): 1.6 | ALP ([…], time 14 day): 909.2 IU/L | ALT ([…], time 14 day): 32.2 IU/L | AST ([…], time 14 day): 63 IU/L | BUN ([…], time 14 day): 18.8 mg/dL | CRE ([…], time 14 day): 0.6 mg/dL | Ca ([…], time 14 day): 10.3 mg/dL | Cl ([…], time 14 day): 106 meq/L | DBIL ([…], time 14 day): 0.04 mg/dL | GLC ([…], time 14 day): 198.6 mg/dL | IP ([…], time 14 day): 6.5 mg/dL | K ([…], time 14 day): 4.5 meq/L | LDH ([…], time 14 day): 108 IU/L | Na ([…], time 14 day): 140.8 meq/L | PL ([…], time 14 day): 145.6 mg/dL | RALB ([…], time 14 day): 3.8 g/dL | TBIL ([…], time 14 day): 0.4 mg/dL | TC ([…], time 14 day): 68 mg/dL | TG ([…], time 14 day): 125.4 mg/dL | TP ([…], time 14 day): 6.2 g/dL | gamma-GTP ([…], time 14 day): 1.8 IU/L | A/G ([…], time 28 day): 1.4 | ALP ([…], time 28 day): 669.2 IU/L | ALT ([…], time 28 day): 31.4 IU/L | AST ([…], time 28 day): 62.4 IU/L | BUN ([…], time 28 day): 20 mg/dL | CRE ([…], time 28 day): 0.6 mg/dL | Ca ([…], time 28 day): 9.7 mg/dL | Cl ([…], time 28 day): 103.8 meq/L | DBIL ([…], time 28 day): 0.02 mg/dL | GLC ([…], time 28 day): 189.2 mg/dL | IP ([…], time 28 day): 5.7 mg/dL | K ([…], time 28 day): 4.4 meq/L | LDH ([…], time 28 day): 102.8 IU/L | Na ([…], time 28 day): 139.6 meq/L | PL ([…], time 28 day): 136.8 mg/dL | RALB ([…], time 28 day): 3.7 g/dL | TBIL ([…], time 28 day): 0.4 mg/dL | TC ([…], time 28 day): 61.4 mg/dL | TG ([…], time 28 day): 154.4 mg/dL | TP ([…], time 28 day): 6.2 g/dL | gamma-GTP ([…], time 28 day): 1.2 IU/L
